Laboratory results taken from US9328099B2, “Cyanomethylpyrazole carboxamides as janus kinase inhibitors” (Merck Sharp & Dohme Corp., priority 2011, dated 2016).

What was measured:
[1] = biological target: JAK1 (Homo sapiens (Human), UniProt P23458); assay: Jak Biochemical HTRF Assay, JAK1; details: HTRF biochemical assay, GST-tagged catalytic domain; top concentration tested […]; read-out: JAK1 IC50
Text: (§1) Jak Biochemical HTRF Assay Protocol
(§2) Subsequent reagent additions employed an Agilent Bravo.

[2] = biological target: JAK2 (Homo sapiens (Human), UniProt O60674); assay: Jak Biochemical HTRF Assay, JAK2; details: HTRF biochemical assay, GST-tagged catalytic domain; top concentration tested […]
JAK2, sequence (O60674 849-1124): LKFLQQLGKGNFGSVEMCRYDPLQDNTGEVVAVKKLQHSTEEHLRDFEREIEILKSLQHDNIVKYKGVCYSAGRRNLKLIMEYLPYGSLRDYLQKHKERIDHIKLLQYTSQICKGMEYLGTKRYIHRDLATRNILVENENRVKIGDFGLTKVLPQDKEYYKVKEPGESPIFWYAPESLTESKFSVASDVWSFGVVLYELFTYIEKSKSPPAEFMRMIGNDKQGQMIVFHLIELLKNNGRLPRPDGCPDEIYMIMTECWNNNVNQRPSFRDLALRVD
Text: as §1, §2

JAK1, sequence (P23458 875-1153): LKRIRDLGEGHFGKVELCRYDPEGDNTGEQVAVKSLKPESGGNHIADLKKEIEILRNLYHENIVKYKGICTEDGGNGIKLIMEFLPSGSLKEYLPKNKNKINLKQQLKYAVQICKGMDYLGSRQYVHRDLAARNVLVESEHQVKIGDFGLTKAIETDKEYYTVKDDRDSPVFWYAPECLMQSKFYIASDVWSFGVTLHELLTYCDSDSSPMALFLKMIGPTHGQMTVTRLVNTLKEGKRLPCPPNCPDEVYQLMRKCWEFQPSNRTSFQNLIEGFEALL

SMILES | IC50 [1] | IC50 [2]
CC(C)NC(=O)N1CCC(CC#N)(n2cc(C(N)=O)c(Nc3ccccc3)n2)CC1 [Example 38-46, 4-[4-Carbamoyl-3-(phenylamino)-1H-pyrazol-1-yl]-4-(cyanomethyl)-N-(1-methylethyl)piperidine-1-carboxamide] | 2 nM | 59 nM
N#CCC1(n2cc(C(N)=O)c(Nc3ccc(Cl)cc3)n2)CCC(N2CC(F)C2)CC1 (stereo not drawn) [Example 39-1, Cis or trans 3-((4-chlorophenyl)amino)-1-(1-(cyanomethyl)-4-(3-fluoroazetidin-1-yl)cyclohexyl)-1H-pyrazole-4-carboxamide] | 0.09 nM | 2 nM
N#CCC1(n2cc(C(N)=O)c(Nc3ccc(F)cc3)n2)CCC(NC2CCOCC2)CC1 (stereo not drawn) [Example 40-5, Cis or trans 1-[1-(cyanomethyl)-4-(tetrahydro-2H-pyran-4-ylamino)cyclohexyl]-3-[(4-fluorophenyl)amino]-1H-pyrazole-4-carboxamide] | 449 nM | > 1500 nM
CN(c1ccccc1)C1CCC(CC#N)(n2cc(C(N)=O)c(Nc3ccnc(F)c3)n2)CC1 (stereo not drawn) [Example 40-15, Cis or trans 1-{1-(cyanomethyl)-4-[methyl(phenyl)amino]cyclohexyl}-3-[(2-fluoropyridin-4-yl)amino]-1H-pyrazole-4-carboxamide] | 0.08 nM | 2 nM
N#CCC1(n2cc(C(N)=O)c(Nc3ccc(F)cc3)n2)CCC(N2CCc3ccccc32)CC1 (stereo not drawn) [Example 40-21, Cis or trans 1-[1-(cyanomethyl)-4-(2,3-dihydro-1H-indol-1-yl)cyclohexyl]-3-[(4-fluorophenyl)amino]-1H-pyrazole-4-carboxamide] | 171 nM | > 1500 nM
N#CCC1(n2cc(C(N)=O)c(Nc3ccnc(F)c3)n2)CCC(NC2CCCCC2)CC1 (stereo not drawn) [Example 40-23, Cis or trans 1-[1-(cyanomethyl)-4-(cyclohexylamino)cyclohexyl]-3-[(2-fluoropyridin-4-yl)amino]-1H-pyrazole-4-carboxamide] | 2 nM | 237 nM
N#CCC1(n2cc(C(N)=O)c(Nc3ccc(S(=O)(=O)C(F)F)cc3)n2)CCC(NC2CCOCC2)CC1 (stereo not drawn) [Example 40-26, Cis or trans 1-[1-(cyanomethyl)-4-(tetrahydro-2H-pyran-4-ylamino)cyclohexyl]-3-({4-[(difluoromethyl)sulfonyl]phenyl}amino)-1H-pyrazole-4-carboxamide] | 0.08 nM | 5 nM
N#CCC1(n2cc(C(N)=O)c(Nc3ccc(F)cc3)n2)CCC(N2CCC(O)CC2)CC1 (stereo not drawn) [Example 40-27, Cis or trans 1-[1-(cyanomethyl)-4-(4-hydroxypiperidin-1-yl)cyclohexyl]-3-[(4-fluorophenyl)amino]-1H-pyrazole-4-carboxamide] | 8 nM | 273 nM
N#CCC1(n2cc(C(N)=O)c(Nc3ccc(S(=O)(=O)C(F)F)cc3)n2)CCC(N2CCC(F)(F)CC2)CC1 (stereo not drawn) [Example 40-31, Cis or trans 1-[1-(cyanomethyl)-4-(4,4-difluoropiperidin-1-yl)cyclohexyl]-3-({4-[(difluoromethyl)sulfonyl]phenyl}amino)-1H-pyrazole-4-carboxamide] | 0.1 nM | 2 nM
CN(c1ccccc1)C1CCC(CC#N)(n2cc(C(N)=O)c(Nc3ccnc(F)c3)n2)CC1 (stereo not drawn) [Example 40-34, Cis or trans 1-{1-(cyanomethyl)-4-[methyl(phenyl)amino]cyclohexyl}-3-[(2-fluoropyridin-4-yl)amino]-1H-pyrazole-4-carboxamide] | 4 nM | 105 nM
N#CCC1(n2cc(C(N)=O)c(Nc3ccc(F)cc3)n2)CCC(Nc2cccnc2)CC1 (stereo not drawn) [Example 40-39, Cis or trans 1-[1-(cyanomethyl)-4-(pyridin-3-ylamino)cyclohexyl]-3-[(4-fluorophenyl)amino]-1H-pyrazole-4-carboxamide] | 30 nM | 760 nM
N#CCC1(n2cc(C(N)=O)c(Nc3ccc(F)cc3)n2)CCC(N2CCC(O)CC2)CC1 (stereo not drawn) [Example 40-41, Cis or trans 1-[1-(cyanomethyl)-4-(4-hydroxypiperidin-1-yl)cyclohexyl]-3-[(4-fluorophenyl)amino]-1H-pyrazole-4-carboxamide] | 584 nM | > 1500 nM
N#CCC1(n2cc(C(N)=O)c(Nc3ccc(S(=O)(=O)C(F)F)cc3)n2)CCC(N2CCC(F)(F)CC2)CC1 (stereo not drawn) [Example 40-42, Cis or trans 1-[1-(cyanomethyl)-4-(4,4-difluoropiperidin-1-yl)cyclohexyl]-3-({4-[(difluoromethyl)sulfonyl]phenyl}amino)-1H-pyrazole-4-carboxamide] | 64 nM | 775 nM

Second part, the compound after the results:

IC50 [1] | IC50 [2] | SMILES
119 nM | > 1500 nM | N#CCC1(n2cc(C(N)=O)c(Nc3ccc(F)cc3)n2)CCC(Nc2cccc(F)c2)CC1 (stereo not drawn) [Example 40-3, Cis or trans 1-{1-(cyanomethyl)-4-[(3-fluorophenyl)amino]cyclohexyl}-3-[(4-fluorophenyl)amino]-1H-pyrazole-4-carboxamide]
14 nM | 355 nM | N#CCC1(n2cc(C(N)=O)c(Nc3ccnc(F)c3)n2)CCC(Nc2cc(F)ccc2F)CC1 (stereo not drawn) [Example 40-10, Cis or trans 1-{1-(cyanomethyl)-4-[(2,5-difluorophenyl)amino]cyclohexyl}-3-[(2-fluoropyridin-4-yl)amino]-1H-pyrazole-4-carboxamide]
0.2 nM | 7 nM | N#CCC1(n2cc(C(N)=O)c(Nc3ccnc(F)c3)n2)CCC(Nc2ccccc2Cl)CC1 (stereo not drawn) [Example 40-11, Cis or trans 1-{4-[(2-chlorophenyl)amino]-1-(cyanomethyl)cyclohexyl}-3-[(2-fluoropyridin-4-yl)amino]-1H-pyrazole-4-carboxamide]
2 nM | 73 nM | N#CCC1(n2cc(C(N)=O)c(Nc3ccc(F)cc3)n2)CCC(Nc2ccccn2)CC1 (stereo not drawn) [Example 40-12, Cis or trans 1-[1-(cyanomethyl)-4-(pyridin-2-ylamino)cyclohexyl]-3-[(4-fluorophenyl)amino]-1H-pyrazole-4-carboxamide]
0.3 nM | 18 nM | N#CCC1(n2cc(C(N)=O)c(Nc3ccc(F)cc3)n2)CCC(Nc2cccc(F)c2)CC1 (stereo not drawn) [Example 40-16, Cis or trans 1-{1-(cyanomethyl)-4-[(3-fluorophenyl)amino]cyclohexyl}-3-[(4-fluorophenyl)amino]-1H-pyrazole-4-carboxamide]
235 nM | > 1500 nM | N#CCC1(n2cc(C(N)=O)c(Nc3ccc(F)cc3)n2)CCC(Nc2ccc(F)cc2)CC1 (stereo not drawn) [Example 40-18, Cis or trans 1-{1-(cyanomethyl)-4-[(4-fluorophenyl)amino]cyclohexyl}-3-[(4-fluorophenyl)amino]-1H-pyrazole-4-carboxamide]
0.3 nM | 10 nM | N#CCC1(n2cc(C(N)=O)c(Nc3ccc(F)cc3)n2)CCC(Nc2ccc(F)cc2)CC1 (stereo not drawn) [Example 40-19, Cis or trans 1-{1-(cyanomethyl)-4-[(4-fluorophenyl)amino]cyclohexyl}-3-[(4-fluorophenyl)amino]-1H-pyrazole-4-carboxamide]
1 nM | 43 nM | N#CCC1(n2cc(C(N)=O)c(Nc3ccnc(F)c3)n2)CCC(Nc2ccc(F)c(F)c2)CC1 (stereo not drawn) [Example 40-20, Cis or trans 1-{1-(cyanomethyl)-4-[(3,4-difluorophenyl)amino]cyclohexyl}-3-[(2-fluoropyridin-4-yl)amino]-1H-pyrazole-4-carboxamide]
63 nM | 940 nM | N#CCC1(n2cc(C(N)=O)c(Nc3ccnc(F)c3)n2)CCC(Nc2ccccc2Cl)CC1 (stereo not drawn) [Example 40-25, Cis or trans 1-{4-[(2-chlorophenyl)amino]-1-(cyanomethyl)cyclohexyl}-3-[(2-fluoropyridin-4-yl)amino]-1H-pyrazole-4-carboxamide]
0.07 nM | 4 nM | N#CCC1(n2cc(C(N)=O)c(Nc3ccnc(F)c3)n2)CCC(Nc2cccc(Cl)c2)CC1 (stereo not drawn) [Example 40-29, Cis or trans 1-{4-[(3-chlorophenyl)amino]-1-(cyanomethyl)cyclohexyl}-3-[(2-fluoropyridin-4-yl)amino]-1H-pyrazole-4-carboxamide]
326 nM | > 1500 nM | N#CCC1(n2cc(C(N)=O)c(Nc3ccnc(F)c3)n2)CCC(N2CCc3ccccc32)CC1 (stereo not drawn) [Example 40-30, Cis or trans 1-[1-(cyanomethyl)-4-(2,3-dihydro-1H-indol-1-yl)cyclohexyl]-3-[(2-fluoropyridin-4-yl)amino]-1H-pyrazole-4-carboxamide]
0.03 nM | 0.8 nM | N#CCC1(n2cc(C(N)=O)c(Nc3ccnc(F)c3)n2)CCC(Nc2ccc(F)cc2F)CC1 (stereo not drawn) [Example 40-33, Cis or trans 1-{1-(cyanomethyl)-4-[(2,4-difluorophenyl)amino]cyclohexyl}-3-[(2-fluoropyridin-4-yl)amino]-1H-pyrazole-4-carboxamide]
65 nM | > 1500 nM | N#CCC1(n2cc(C(N)=O)c(Nc3ccnc(F)c3)n2)CCC(Nc2ccc(F)c(F)c2)CC1 (stereo not drawn) [Example 40-36, Cis or trans 1-{1-(cyanomethyl)-4-[(3,4-difluorophenyl)amino]cyclohexyl}-3-[(2-fluoropyridin-4-yl)amino]-1H-pyrazole-4-carboxamide]
16 nM | 506 nM | N#CCC1(n2cc(C(N)=O)c(Nc3ccnc(F)c3)n2)CCC(Nc2ccc(F)cc2F)CC1 (stereo not drawn) [Example 40-37, Cis or trans 1-{1-(cyanomethyl)-4-[(2,4-difluorophenyl)amino]cyclohexyl}-3-[(2-fluoropyridin-4-yl)amino]-1H-pyrazole-4-carboxamide]
0.2 nM | 9 nM | N#CCC1(n2cc(C(N)=O)c(Nc3ccnc(F)c3)n2)CCC(Nc2ccc(F)cc2)CC1 (stereo not drawn) [Example 40-40, Cis or trans 1-{1-(cyanomethyl)-4-[(4-fluorophenyl)amino]cyclohexyl}-3-[(2-fluoropyridin-4-yl)amino]-1H-pyrazole-4-carboxamide]
